Test system: HL60 cell line
Experiment: HL60 cell differentiation (CD11b)
Format: cell-based, human
Settings: four-day single-dose treatment
Protocol: For drug screening and dose response validations, GFP positive cells were detected by Millipore Guava flow cytometer (EMD, Millipore). Cell cycle analysis was performed using BD FACSCalibur™ by propidium iodide staining four days after drug treatment. Sub-G1 population percentage was also included to measure apoptotic cell proportion. Data were analyzed using FlowJo software version 10.2. For the cell differentiation analysis, cells were washed and stained with propidium iodide (PI), CD11 b (BD Biosciences, #562793) and the isotype control IgG (BD Biosciences, #555748). Flow cytometry analysis was performed on a Millipore Guava flow cytometer (EMD, Millipore). For the ID8 in vivo experiments, ascites was drained from 5-10 mice per group and incubated in ACK buffer (Thermo Fisher) to lyse red blood cells for 10 minutes, then washed. Ascites from each mouse was individually lysed and prepared for flow cytometry. Mononuclear cells collected were cultured for 4 hours in RPMI with 5% Fetal Bovine Serum and in the presence of Cell Stimulation Cocktail (plus protein transport inhibitors; eBioscience). […] Flow cytometry acquisition was performed on an LSRII cytometer (BD Biosciences) and data were analyzed using FlowJo software version 10.2.

Nc1nc(N[C@H]2CC3CCC2C3)sc1C(=O)c1ccccc1[N+](=O)[O-] (stereo partly shown) [MC180295]
differentiation marker CD11b: significant induction

— US10941126B2, “Bridged bicycloalkyl-substituted aminothiazoles and their methods of use” (Temple University—Of The Commonwealth System of Higher …, priority 2017, dated 2021)
